{"source": "patent US8389513B2", "about": "“2-amino-5,5-difluoro-5,6-dihydro-4H-[1,3]oxazin-4-yl)-phenyl]-amides” (Hoffmann-La Roche Inc., priority 2009, dated 2013)", "key": {"CYP2D6": {"molecular_target": "T1, CYP2D6 (Homo sapiens, UniProt P10635)", "T1 construct": "0.2 mg/ml pooled human liver microsomes; from tissue; host or cells: pooled human liver microsomes", "T1 sequence (P10635 whole entry)": "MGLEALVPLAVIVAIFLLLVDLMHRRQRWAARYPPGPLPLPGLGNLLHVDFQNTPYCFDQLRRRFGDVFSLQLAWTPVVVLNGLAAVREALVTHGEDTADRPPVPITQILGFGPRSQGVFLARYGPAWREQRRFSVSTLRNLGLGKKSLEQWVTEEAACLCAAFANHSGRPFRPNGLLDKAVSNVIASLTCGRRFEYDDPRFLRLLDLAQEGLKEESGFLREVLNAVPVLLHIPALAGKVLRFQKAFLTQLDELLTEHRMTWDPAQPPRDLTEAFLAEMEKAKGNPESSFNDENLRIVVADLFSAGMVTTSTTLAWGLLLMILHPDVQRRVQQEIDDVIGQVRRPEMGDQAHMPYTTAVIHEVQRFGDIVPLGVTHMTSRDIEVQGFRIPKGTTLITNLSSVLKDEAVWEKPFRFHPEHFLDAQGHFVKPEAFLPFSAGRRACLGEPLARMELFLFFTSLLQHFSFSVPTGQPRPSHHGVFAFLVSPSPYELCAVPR", "test": "CYP inhibition assay, CYP2D6", "format": "in vitro ADME", "settings": "human liver microsomes, dextromethorphan; read-out: CYP IC50 2D6", "method": "(§1) Inhibition of cytochromes P450 (CYPs) 2C9, 2D6 and 3A4 was assessed using human liver microsomes and CYP-selective substrate metabolism reactions. 50 μl incubations were made up containing (finally) 0.2 mg/ml pooled human liver microsomes, 5 μM substrate (diclofenac for CYP2C9 [4′ hydroxylase], dextromethorphan for CYP2D6 [O-demethylase] or midazolam for CYP3A4 [1′ hydroxylase]), 0.25 μL DMSO containing test inhibitor and NADPH regenerating system. […] Incubations were prewarmed to 37° C. for 10 minutes before initiation by addition of NADPH regenerating system. Incubations were quenched after 5 minutes (20 minutes for dextromethorphan) by addition of 50 μl cold acetonitrile containing 20 ng/ml 4-OH-diclofenac-13C6, 20 ng/mL dextrorphan-D3 and 20 ng/mL 1-OH-midazolam-D4. Quenched incubates were stored at −20° C. for at least 1 hour before centrifugation (20,000×g, 20 minutes). Supernatants were removed and diluted 1:1 with water prior to analysis using a RapidFire sample injector system and API4000 mass spectrometer. Peak areas for substrate, metabolite and stable-labelled metabolite standard were determined using MS/MS. The peak area ratios between the metabolite generated by the enzymatic reaction and the internal standard were used in subsequent calculations. The percentage of (DMSO) control activity was calculated for each incubate and IC50 values estimated by non-linear regression. Sulfaphenazole, quinidine or ketoconazole were tested in each CYP2C9, CYP2D6 or CYP3A4 inhibition experiment, respectively, to ensure assay sensitivity and reproducibility."}, "P-gP": {"molecular_target": "P-gP (Homo sapiens, UniProt P08183)", "sequence (P08183 whole entry)": "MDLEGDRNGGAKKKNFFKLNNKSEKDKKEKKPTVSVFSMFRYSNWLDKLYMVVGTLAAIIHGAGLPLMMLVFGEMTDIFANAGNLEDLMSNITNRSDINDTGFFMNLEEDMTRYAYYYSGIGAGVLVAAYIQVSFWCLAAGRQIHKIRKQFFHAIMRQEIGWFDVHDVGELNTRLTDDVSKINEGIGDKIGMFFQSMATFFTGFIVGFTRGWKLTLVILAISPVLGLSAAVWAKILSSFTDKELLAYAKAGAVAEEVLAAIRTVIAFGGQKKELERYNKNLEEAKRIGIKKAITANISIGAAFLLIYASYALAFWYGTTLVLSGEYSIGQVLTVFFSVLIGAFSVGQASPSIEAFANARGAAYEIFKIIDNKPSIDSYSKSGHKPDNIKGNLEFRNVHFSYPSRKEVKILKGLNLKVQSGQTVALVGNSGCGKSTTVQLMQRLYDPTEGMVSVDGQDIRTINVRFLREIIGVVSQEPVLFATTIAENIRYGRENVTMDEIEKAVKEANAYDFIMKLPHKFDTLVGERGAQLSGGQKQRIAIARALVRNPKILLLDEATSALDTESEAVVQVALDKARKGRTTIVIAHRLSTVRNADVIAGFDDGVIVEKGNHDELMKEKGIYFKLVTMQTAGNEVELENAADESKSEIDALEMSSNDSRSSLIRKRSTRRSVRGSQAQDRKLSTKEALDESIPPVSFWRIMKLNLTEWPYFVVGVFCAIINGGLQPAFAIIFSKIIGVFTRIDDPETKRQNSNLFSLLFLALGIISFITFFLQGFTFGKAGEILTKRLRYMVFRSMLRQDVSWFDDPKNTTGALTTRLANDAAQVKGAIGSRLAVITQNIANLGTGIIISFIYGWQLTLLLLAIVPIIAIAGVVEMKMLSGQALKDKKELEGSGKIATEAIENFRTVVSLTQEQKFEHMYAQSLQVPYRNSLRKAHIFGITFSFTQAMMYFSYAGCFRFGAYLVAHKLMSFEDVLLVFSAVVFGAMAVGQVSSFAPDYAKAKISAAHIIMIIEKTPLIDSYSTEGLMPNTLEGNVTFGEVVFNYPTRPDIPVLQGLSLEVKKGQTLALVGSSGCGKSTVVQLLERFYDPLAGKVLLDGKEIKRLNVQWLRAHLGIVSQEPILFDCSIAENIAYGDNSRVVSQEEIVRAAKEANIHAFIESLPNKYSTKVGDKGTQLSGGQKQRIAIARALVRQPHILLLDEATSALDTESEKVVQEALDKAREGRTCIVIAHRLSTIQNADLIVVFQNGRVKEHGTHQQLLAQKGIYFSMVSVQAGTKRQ", "test": "P-gP human efflux ratio", "format": "in vitro ADME", "set-up": "key: A = not or weak substrate"}, "in vivo effect": {"test": "in vivo effect", "settings": "po; % of control @ 30 mg/kg p.o."}, "[1]": {"molecular_target": "T2, cathepsin D (from human liver) (Homo sapiens, UniProt P07339)", "T2 construct": "cathepsin D (from human liver, Calbiochem); purchased Calbiochem; host or cells: human liver", "T2 sequence (P07339 65-412)": "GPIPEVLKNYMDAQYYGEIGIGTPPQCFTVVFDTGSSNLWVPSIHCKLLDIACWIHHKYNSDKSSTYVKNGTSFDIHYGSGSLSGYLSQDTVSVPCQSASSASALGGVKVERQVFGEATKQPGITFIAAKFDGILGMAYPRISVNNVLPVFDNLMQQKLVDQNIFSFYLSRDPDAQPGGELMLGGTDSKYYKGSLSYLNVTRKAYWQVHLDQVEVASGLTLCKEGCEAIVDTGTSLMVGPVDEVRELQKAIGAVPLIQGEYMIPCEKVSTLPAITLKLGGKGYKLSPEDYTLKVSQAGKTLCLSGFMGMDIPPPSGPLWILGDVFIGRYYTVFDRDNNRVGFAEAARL", "test": "Cathepsin D fluorescent substrate kinetic assay", "format": "biochemical", "settings": "pH 5.5", "source_text": "Cathepsin D and Cathepsin E Fluorescent Substrate Kinetic Assays\nThe MR121 fluorescence assays described below are based on the fact that MR121 forms a non-fluorescent ground state complex with tryptophan. In solution this formation occurs at millimolar concentrations of tryptophan. The mechanism can be used to design a generic biochemical assay for proteases. A substrate peptide is labeled at the N-terminus with tryptophan and at the C-terminus with the fluorophore MR121 (for cathepsin D the 10 amino acid peptide […]-MR121 was used; for cathepsin E, MR121-[…] was used). In absence of protease activity, the substrates remain intact and the MR121 fluorescence is reduced by the high local Trp-concentration. If the substrates are cleaved by the enzymes the MR121 fluorescence is recovered.\nThe fluorescent substrate cathepsin D and cathepsin E kinetic assays were performed at room temperature in 384-well microtiter plates (black with clear flat bottom, non binding surface plates from Corning) in a final volume of 51 μl. The test compounds were serially diluted in DMSO (15 concentrations, 1/3 dilution steps) and 1 μl of diluted compounds were mixed for 10 min with 40 μl of cathepsin D (from human liver, Calbiochem) diluted in assay buffer (100 mM sodium acetate, 0.05% BSA, pH 5.5; final concentration: 200 nM) or with 40 μl of recombinant human cathepsin E (R&D Systems) diluted in assay buffer (100 mM sodium acetate, 0.05% BSA, pH 4.5; final concentration: 0.01 nM). After addition of 10 μl of the cathepsin D substrate […]-MR121 diluted in cathepsin D assay buffer (final concentration: 300 nM) or 10 µl of the cathepsin E substrate MR121-[…] diluted in cathepsin E assay buffer (final concentration: 300 nM), the plates were strongly shaken for 2 minutes. The enzymatic reaction was followed in a plate: vision reader (Perkin Elmer) (excitation wavelength: 630 nm; emission: 695 nm) for at least 30 minutes in a kinetic measurement detecting an increase of MR121 fluorescence during the reaction time. The slope in the linear range of the kinetic was calculated and the IC50 of the test compounds were determined using a four parameter equation for curve fitting."}, "hERG channel": {"molecular_target": "T3, hERG channel (Homo sapiens, UniProt Q12809)", "T3 construct": "expressed in transfected cells; host or cells: CHO", "T3 sequence (Q12809 whole entry)": "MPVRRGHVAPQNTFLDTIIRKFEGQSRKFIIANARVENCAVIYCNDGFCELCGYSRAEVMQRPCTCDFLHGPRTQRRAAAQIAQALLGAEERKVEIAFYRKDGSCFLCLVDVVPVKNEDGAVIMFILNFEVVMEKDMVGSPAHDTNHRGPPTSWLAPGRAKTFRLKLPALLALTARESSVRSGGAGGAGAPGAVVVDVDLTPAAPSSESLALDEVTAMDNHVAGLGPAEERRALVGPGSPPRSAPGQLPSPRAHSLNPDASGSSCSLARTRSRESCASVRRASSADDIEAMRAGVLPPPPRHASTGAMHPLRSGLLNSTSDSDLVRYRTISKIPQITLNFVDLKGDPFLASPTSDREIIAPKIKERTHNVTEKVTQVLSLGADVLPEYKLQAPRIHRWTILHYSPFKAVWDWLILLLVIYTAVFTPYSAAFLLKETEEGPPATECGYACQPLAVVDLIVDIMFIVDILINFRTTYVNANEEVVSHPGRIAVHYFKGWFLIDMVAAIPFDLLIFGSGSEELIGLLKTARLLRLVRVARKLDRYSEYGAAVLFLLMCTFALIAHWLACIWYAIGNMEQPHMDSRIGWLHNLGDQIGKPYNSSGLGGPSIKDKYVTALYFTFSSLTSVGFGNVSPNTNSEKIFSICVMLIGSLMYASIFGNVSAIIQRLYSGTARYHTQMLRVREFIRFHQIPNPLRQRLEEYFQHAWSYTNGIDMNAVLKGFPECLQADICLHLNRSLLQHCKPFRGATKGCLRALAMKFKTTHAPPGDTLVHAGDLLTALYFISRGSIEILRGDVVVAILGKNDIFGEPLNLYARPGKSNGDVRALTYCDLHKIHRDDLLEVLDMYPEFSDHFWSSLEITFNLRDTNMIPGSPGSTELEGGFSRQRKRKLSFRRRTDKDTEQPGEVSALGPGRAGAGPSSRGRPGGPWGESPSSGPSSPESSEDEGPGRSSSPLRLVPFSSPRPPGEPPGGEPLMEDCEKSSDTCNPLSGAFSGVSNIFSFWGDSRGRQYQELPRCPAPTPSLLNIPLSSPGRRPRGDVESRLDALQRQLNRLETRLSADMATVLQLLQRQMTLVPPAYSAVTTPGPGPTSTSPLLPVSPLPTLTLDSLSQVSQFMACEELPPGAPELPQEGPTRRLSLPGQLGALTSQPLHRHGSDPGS", "test": "PatchXpress hERG inhibition assay", "format": "cell-based", "settings": "% inhibition @ 1 μM", "source_text": "PatchXpress hERG Inhibition Assay\nFor patch clamp electrophysiology, the external buffer contained (in mM): 150 NaCl, 10 Hepes, 4 KCl, 1.2 CaCl2, 1 MgCl2, pH 7.4 adjusted with […] and the internal recording solution contained (in mM): 140 KCl, 6 EGTA, 5 Hepes, MgCl2, 5 ATP-Na2, pH 7.2 adjusted with KOH. Once the cell was loaded in the recording chamber and formed a giga ohm seal with the planar glass electrodes (Sealchip™), a whole-cell configuration was achieved by rupturing the cell membrane. The membrane potential was then clamped at −80 mV and the hERG channel activated by a 1-second depolarizing pulse delivered at 0.1 Hz, the hERG current was measured during the 500 ms-repolarizing pulse to −40 mV. […] The inhibition of hERG current at each concentration was normalized to that recorded in the vehicle control, and fitted with Hill equation to calculate IC20 and/or IC50."}, "BACE1": {"molecular_target": "T4, BACE1 (Homo sapiens, UniProt P56817)", "T4 construct": "Human HEK293 cells which are stably transfected with a vector expressing a cDNA of the human APP wt gene (APP695); endogenous in cells; host or cells: HEK293 stably transfected with human APP695 wt", "T4 sequence (P56817 46-501)": "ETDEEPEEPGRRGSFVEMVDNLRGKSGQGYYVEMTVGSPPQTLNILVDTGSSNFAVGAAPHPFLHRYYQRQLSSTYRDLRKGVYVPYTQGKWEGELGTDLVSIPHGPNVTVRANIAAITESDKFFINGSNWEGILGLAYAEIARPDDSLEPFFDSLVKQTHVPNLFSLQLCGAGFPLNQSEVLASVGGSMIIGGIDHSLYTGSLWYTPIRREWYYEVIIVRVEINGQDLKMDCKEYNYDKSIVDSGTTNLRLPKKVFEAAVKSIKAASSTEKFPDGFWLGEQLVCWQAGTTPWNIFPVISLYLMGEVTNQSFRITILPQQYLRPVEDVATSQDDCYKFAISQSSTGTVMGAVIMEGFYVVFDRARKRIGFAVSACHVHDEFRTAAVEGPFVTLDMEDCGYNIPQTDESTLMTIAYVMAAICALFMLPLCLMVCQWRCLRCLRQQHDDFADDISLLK", "test": "Cellular Aβ-lowering assay (Aβ40 ELISA)", "format": "cell-based", "settings": "HEK293 cells stably expressing human APP695; Aβ40 in culture supernatant; read-out: BACE1 cell act. Aβ40 IC50", "method_in_brief": "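Aβ40 in supernatant measured by sandwich ELISA (TMB, 450 nm) and quantified against a pure Aβ peptide standard curve.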"}, "CYP3A4": {"molecular_target": "T5, CYP3A4 (Homo sapiens, UniProt P08684)", "T5 construct": "0.2 mg/ml pooled human liver microsomes; from tissue; host or cells: pooled human liver microsomes", "T5 sequence (P08684 whole entry)": "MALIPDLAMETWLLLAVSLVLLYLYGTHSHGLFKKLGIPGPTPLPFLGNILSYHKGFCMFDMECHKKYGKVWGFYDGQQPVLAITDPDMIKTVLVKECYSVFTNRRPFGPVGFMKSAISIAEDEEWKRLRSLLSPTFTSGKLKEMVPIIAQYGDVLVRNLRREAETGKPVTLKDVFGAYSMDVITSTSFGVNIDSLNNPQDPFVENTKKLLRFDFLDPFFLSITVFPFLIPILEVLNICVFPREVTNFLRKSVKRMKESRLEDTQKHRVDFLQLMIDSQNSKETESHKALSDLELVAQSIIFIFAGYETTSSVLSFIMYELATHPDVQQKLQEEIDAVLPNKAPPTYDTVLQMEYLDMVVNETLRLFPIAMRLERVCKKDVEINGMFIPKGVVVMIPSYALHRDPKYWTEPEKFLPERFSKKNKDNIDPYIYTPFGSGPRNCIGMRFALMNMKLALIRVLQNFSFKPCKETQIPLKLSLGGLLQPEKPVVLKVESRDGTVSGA", "test": "CYP inhibition assay, CYP3A4", "format": "in vitro ADME", "settings": "human liver microsomes, midazolam; read-out: CYP IC50 3A4", "method": "as §1"}}}
{"smiles": "CC1(C)OC(N)=N[C@](C)(c2cc(NC(=O)c3ncc(C(F)(F)F)cc3Cl)ccc2F)C1(F)F", "note": "[Example 20, 3-Chloro-5-trifluoromethyl-pyridine-2-carboxylic acid [3-((R)-2-amino-5,5-difluoro-4,6,6-trimethyl-5,6-dihydro-4H-[1,3]oxazin-4-yl)-4-fluoro-phenyl]-amide]", "values": [{"measurement": "IC50", "setting": "CYP2D6", "result": "1 to 10", "unit": "µM"}, {"measurement": "P-gP human, efflux ratio: substrate category", "setting": "P-gP", "result": "A"}, {"measurement": "response vs control in vivo at 30 mg/kg", "setting": "in vivo effect", "result": "< 50", "unit": "%"}, {"measurement": "IC50", "setting": "[1]", "result": "> 200", "unit": "µM"}, {"measurement": "hERG", "setting": "hERG channel", "result": "A (A = less than 26% inhibition @ 1 μM)"}, {"measurement": "IC50", "setting": "BACE1", "result": 0.05, "unit": "µM"}, {"measurement": "IC50", "setting": "CYP3A4", "result": "> 10", "unit": "µM"}]}
{"smiles": "C[C@]1(c2cc(NC(=O)c3ncc(C#N)cc3Cl)ccc2F)N=C(N)OCC1(F)F", "note": "[Example 39, 3-Chloro-5-cyano-pyridine-2-carboxylic acid [3-((R)-2-amino-5,5-difluoro-4-methyl-5,6-dihydro-4H-[1,3]oxazin-4-yl)-4-fluoro-phenyl]-amide]", "values": [{"measurement": "IC50", "setting": "CYP2D6", "result": "> 10", "unit": "µM"}, {"measurement": "response vs control in vivo at 30 mg/kg", "setting": "in vivo effect", "result": "< 50", "unit": "%"}, {"measurement": "IC50", "setting": "[1]", "result": "> 200", "unit": "µM"}, {"measurement": "IC50", "setting": "CYP3A4", "result": "1 to 10", "unit": "µM"}]}
{"smiles": "C[C@]1(c2cc(NC(=O)c3ncc(Cl)cc3Cl)ccc2F)N=C(N)OCC1(F)F", "note": "[Example 8, 3,5-Dichloro-pyridine-2-carboxylic acid [3-((R)-2-amino-5,5-difluoro-4-methyl-5,6-dihydro-4H-[1,3]oxazin-4-yl)-4-fluoro-phenyl]-amide]", "values": [{"measurement": "IC50", "setting": "CYP2D6", "result": "> 10", "unit": "µM"}, {"measurement": "response vs control in vivo at 30 mg/kg", "setting": "in vivo effect", "result": "< 50", "unit": "%"}, {"measurement": "IC50", "setting": "[1]", "result": "> 170", "unit": "µM"}, {"measurement": "hERG", "setting": "hERG channel", "result": "A (A = less than 26% inhibition @ 1 μM)"}, {"measurement": "IC50", "setting": "BACE1", "result": 0.015, "unit": "µM"}, {"measurement": "IC50", "setting": "CYP3A4", "result": "> 10", "unit": "µM"}]}
{"smiles": "CC1(C)OC(N)=N[C@](C)(c2cc(NC(=O)c3ccc(C#N)cn3)ccc2F)C1(F)F", "note": "[Example 21, 5-Cyano-pyridine-2-carboxylic acid [3-((R)-2-amino-5,5-difluoro-4,6,6-trimethyl-5,6-dihydro-4H-[1,3]oxazin-4-yl)-4-fluoro-phenyl]-amide]", "values": [{"measurement": "IC50", "setting": "CYP2D6", "result": "> 10", "unit": "µM"}, {"measurement": "P-gP human, efflux ratio: substrate category", "setting": "P-gP", "result": "A"}, {"measurement": "response vs control in vivo at 30 mg/kg", "setting": "in vivo effect", "result": "< 50", "unit": "%"}, {"measurement": "IC50", "setting": "[1]", "result": "> 200", "unit": "µM"}, {"measurement": "IC50", "setting": "BACE1", "result": 0.007, "unit": "µM"}, {"measurement": "IC50", "setting": "CYP3A4", "result": "> 10", "unit": "µM"}]}
{"smiles": "C[C@]1(c2cc(NC(=O)c3ccc(Cl)cn3)ccc2F)N=C(N)OCC1(F)F", "note": "[Example 1, 5-Chloro-pyridine-2-carboxylic acid [3-((R)-2-amino-5,5-difluoro-4-methyl-5,6-dihydro-4H-[1,3]oxazin-4-yl)-4-fluoro-phenyl]-amide]", "values": [{"measurement": "IC50", "setting": "CYP2D6", "result": "1 to 10", "unit": "µM"}, {"measurement": "response vs control in vivo at 30 mg/kg", "setting": "in vivo effect", "result": "< 50", "unit": "%"}, {"measurement": "IC50", "setting": "[1]", "result": "> 200", "unit": "µM"}, {"measurement": "hERG", "setting": "hERG channel", "result": "A (A = less than 26% inhibition @ 1 μM)"}, {"measurement": "IC50", "setting": "CYP3A4", "result": "> 10", "unit": "µM"}]}
{"smiles": "C[C@]1(c2cc(NC(=O)c3ncc(C(F)(F)F)cc3Cl)ccc2F)N=C(N)OCC1(F)F", "note": "[Example 5, 3-Chloro-5-trifluoromethyl-pyridine-2-carboxylic acid [3-((R)-2-amino-5,5-difluoro-4-methyl-5,6-dihydro-4H-[1,3]oxazin-4-yl)-4-fluoro-phenyl]-amide]", "values": [{"measurement": "IC50", "setting": "CYP2D6", "result": "1 to 10", "unit": "µM"}, {"measurement": "P-gP human, efflux ratio: substrate category", "setting": "P-gP", "result": "A"}, {"measurement": "response vs control in vivo at 30 mg/kg", "setting": "in vivo effect", "result": "< 50", "unit": "%"}, {"measurement": "IC50", "setting": "[1]", "result": "> 200", "unit": "µM"}, {"measurement": "hERG", "setting": "hERG channel", "result": "A (A = less than 26% inhibition @ 1 μM)"}, {"measurement": "IC50", "setting": "BACE1", "result": 0.043, "unit": "µM"}, {"measurement": "IC50", "setting": "CYP3A4", "result": "> 10", "unit": "µM"}]}
{"smiles": "CC1(C)OC(N)=N[C@](C)(c2cc(NC(=O)c3ncc(C#N)cc3Cl)ccc2F)C1(F)F", "note": "[Example 22, 3-Chloro-5-cyano-pyridine-2-carboxylic acid [3-((R)-2-amino-5,5-difluoro-4,6,6-trimethyl-5,6-dihydro-4H-[1,3]oxazin-4-yl)-4-fluoro-phenyl]-amide]", "values": [{"measurement": "IC50", "setting": "CYP2D6", "result": "1 to 10", "unit": "µM"}, {"measurement": "response vs control in vivo at 30 mg/kg", "setting": "in vivo effect", "result": "< 50", "unit": "%"}, {"measurement": "IC50", "setting": "[1]", "result": "> 200", "unit": "µM"}, {"measurement": "IC50", "setting": "BACE1", "result": 0.007, "unit": "µM"}, {"measurement": "IC50", "setting": "CYP3A4", "result": "1 to 10", "unit": "µM"}]}
